Experimental findings from patent US6875743B1, “Cell adhesion inhibitors” (Biogen, Inc., priority 1996, dated 2005) are described below.

Molecules are shown by their SMILES. Numbered stars: 1 amine (or outer) side, 2 acyl side, 3 side chain; on linkers, the order of the positions; unused ones are H or OH. Square brackets hold non-standard residues; d marks the D form. Peptide text beside a SMILES is read from it. * marks the point of attachment. ξ: configuration not given here. X4 = COc1nc(CC(=O)[*:2])ccc1N[*:1]; X5 = COc1cc(CC(=O)[*:2])ccc1N[*:1]; Quinaldoyl = O=C(c1ccc2ccccc2n1)*; NH(2-Me-phenyl) = Cc1ccccc1N*; Tic = O=C(O)[CH]1Cc2ccccc2CN1; Cha = N[CH](CC1CCCCC1)C(=O)O; Chg = N[CH](C(=O)O)C1CCCCC1; ξTic = O=C(O)C1Cc2ccccc2CN1; Nle = CCCC[CH](N)C(=O)O; Nva = CCC[CH](N)C(=O)O; PhAc = O=C(Cc1ccccc1)*; Boc = CC(C)(C)OC(=O)*; CO = O=C([*:1])[*:2]; ξNva = CCCC(N)C(=O)O; NHPh = c1ccc(N*)cc1

For the assay, the target named is T1, VLA4 (Homo sapiens, UniProt P05556+P13612).
T1 construct: endogenous in cells; host or cells: Ramos cells
T1 sequence (P13612 34-1032): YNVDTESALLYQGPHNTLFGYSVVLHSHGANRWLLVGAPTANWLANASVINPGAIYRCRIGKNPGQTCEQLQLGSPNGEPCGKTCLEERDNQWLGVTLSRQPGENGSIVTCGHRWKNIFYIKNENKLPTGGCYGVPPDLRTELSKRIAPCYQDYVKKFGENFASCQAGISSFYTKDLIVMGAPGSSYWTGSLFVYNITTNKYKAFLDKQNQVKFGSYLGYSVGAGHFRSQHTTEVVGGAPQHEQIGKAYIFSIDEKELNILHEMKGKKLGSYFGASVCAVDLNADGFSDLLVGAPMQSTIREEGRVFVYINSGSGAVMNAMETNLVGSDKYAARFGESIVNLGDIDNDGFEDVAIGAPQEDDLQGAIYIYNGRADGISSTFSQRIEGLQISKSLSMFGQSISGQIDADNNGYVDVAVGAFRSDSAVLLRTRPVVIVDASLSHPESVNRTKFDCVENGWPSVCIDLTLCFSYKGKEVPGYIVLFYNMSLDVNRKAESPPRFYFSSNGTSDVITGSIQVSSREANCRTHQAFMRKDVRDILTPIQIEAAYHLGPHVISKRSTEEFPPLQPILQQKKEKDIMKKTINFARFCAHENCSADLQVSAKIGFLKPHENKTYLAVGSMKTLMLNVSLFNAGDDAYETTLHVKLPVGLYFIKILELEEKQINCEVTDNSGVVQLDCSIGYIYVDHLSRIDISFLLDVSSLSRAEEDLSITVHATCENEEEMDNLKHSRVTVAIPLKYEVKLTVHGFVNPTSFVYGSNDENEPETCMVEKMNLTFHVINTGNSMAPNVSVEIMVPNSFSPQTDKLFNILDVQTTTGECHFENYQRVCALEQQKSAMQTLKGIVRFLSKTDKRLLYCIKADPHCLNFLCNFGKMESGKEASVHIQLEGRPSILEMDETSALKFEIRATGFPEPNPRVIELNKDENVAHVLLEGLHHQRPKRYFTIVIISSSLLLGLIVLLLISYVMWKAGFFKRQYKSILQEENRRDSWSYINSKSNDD
T1 sequence (P05556 21-798): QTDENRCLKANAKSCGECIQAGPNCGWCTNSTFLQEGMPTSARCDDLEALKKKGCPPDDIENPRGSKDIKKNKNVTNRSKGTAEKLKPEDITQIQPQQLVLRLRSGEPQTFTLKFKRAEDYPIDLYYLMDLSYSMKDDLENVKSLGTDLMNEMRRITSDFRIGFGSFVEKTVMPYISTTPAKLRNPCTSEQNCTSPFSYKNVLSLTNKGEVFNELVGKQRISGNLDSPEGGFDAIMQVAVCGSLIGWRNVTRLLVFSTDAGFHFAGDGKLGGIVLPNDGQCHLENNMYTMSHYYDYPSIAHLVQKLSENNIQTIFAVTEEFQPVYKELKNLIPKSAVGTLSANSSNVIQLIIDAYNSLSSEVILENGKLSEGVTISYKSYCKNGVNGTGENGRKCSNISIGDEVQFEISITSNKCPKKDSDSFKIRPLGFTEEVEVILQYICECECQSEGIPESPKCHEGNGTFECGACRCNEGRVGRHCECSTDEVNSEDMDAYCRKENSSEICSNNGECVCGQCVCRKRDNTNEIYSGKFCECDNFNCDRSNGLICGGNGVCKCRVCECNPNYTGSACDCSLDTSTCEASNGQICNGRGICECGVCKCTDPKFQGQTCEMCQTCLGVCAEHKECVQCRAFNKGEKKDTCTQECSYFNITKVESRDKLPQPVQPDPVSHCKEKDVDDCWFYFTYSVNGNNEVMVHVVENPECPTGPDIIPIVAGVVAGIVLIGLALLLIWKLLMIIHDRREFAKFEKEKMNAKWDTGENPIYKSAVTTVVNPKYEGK
Put plainly: Inhibition of VLA4-dependent adhesion to BSA-CS1. In kind it is cell-based. Particulars: binding of BCECF-labelled Ramos cells to BSA-CS1 coated wells, 2 mM MnCl2; read-out: IC50. From the text: For example, the cell adhesion inhibitory activity of these compounds may be measured by determining the concentration of inhibitor required to block the binding of VLA-4-expressing cells to fibronectin- or CS1-coated plates. In this assay microtiter wells are coated with either fibronectin (containing the CS-1 sequence) or CS-1. If CS-1 is used, it must be conjugated to a carrier protein, such as bovine serum albumin, in order to bind to the wells. Once the wells are coated, varying concentrations of the test compound are then added together with appropriately labelled, VLA-4-expressing cells. Alternatively, the test compound may be added first and allowed to incubate with the coated wells prior to the addition of the cells. The cells are allowed to incubate in the wells for at least 30 minutes. Following incubation, the wells are emptied and washed. Inhibition of binding is measured by quantitating the fluorescence or radioactivity bound to the plate for each of the various concentrations of test compound, as well as for controls containing no test compound.
VLA-4-expressing cells that may be utilized in this assay include Ramos cells, Jurkat cells, A375 melanoma cells, as well as human peripheral blood lymophocytes (PBLs). The cells used in this assay may be fluorescently or radioactively labelled.
This assay was used to assess the potency of VLA4-directed inhibitory compounds of this invention.
We dissolved BSA-SMCC (Pierce Chemical, Rockford, Ill.; Catalog #77115) in H2O at a concentration of 10 mg/mL. [SEQ ID NO:4]: […](“Cys-Tyr-CS1 peptide”), which we synthesized by conventional solid phase chemistry and purified by HPLC, was dissolved in 10 mM HEPES pH 5, 50 mM NaCl and 0.1 mM EDTA also at a concentration of 10 mg/mL. We then mixed 500 μL of BSA-SMCC, 250 μL of Cys-Tyr-CS1 peptide and 75 μL of 1 mM HEPES pH 7.5 and allowed the conjugation reaction to proceed for 30 minutes. We stopped the reaction by adding 1 μL of beta-mercaptoethanol. Samples were analyzed for cross-linking by SDS-PAGE.
We coated the wells of a Linbro titertek polystyrene 96-well flat bottom plate (Flow Laboratories, Maclean, Va.; catalog #76-231-05) with 100 μL of the above-described BSA-CS1 solution diluted to 1 μg/mL in 0.05 M NaHCO3 (15 mM NaHCO3, 35 mM Na2CO3) pH 9.2. Some wells were not coated with CS1 in order to assess non-specific cell binding (NSB). The plate was then incubated overnight at 4° C.
Following this incubation, the contents of the wells were removed by inverting and blotting the plate. All of the wells were then blocked with 100 μL of 1% BSA in PBS, 0.02% NaN3, for a minimum of one hour at room temperature.
Ramos cells are grown, maintained and labelled in RPMI 1640 culture medium containing 1% BSA. Just prior to running the assay, we added 2′,7′-bis-(2-carboxyethyl)-5 (and -6) carboxyfluorescein acetoxymethyl ester (“BCECF-AM”; Molecular Probes Inc., Eugene, Oreg.; catalog #B-1150) to a final concentration of 2 μM to a culture of Ramos cells (4×10^6 cells/mL). We incubated the cells for 20 minutes at 37° C.
Following labelling, the cells were washed twice in assay buffer (24 mM TRIS, 137 mM NaCl, 2.7 mM KCl, pH 7.4, containing 0.1% BSA and 2 mM glucose) to remove any cations originating from the culture medium. The cells were then resuspended in assay buffer to 4×10^6 cells/mL and 2 mM MnCl2 was added to upregulate VLA4 on the surface of the cells.
Immediately prior to running the assay, we removed the BSA blocking solution from the 96-well plates and washed the wells with 100 μL of assay buffer. We then added to each well 25 μL of test cell adhesion inhibitory compound at 2× the final concentration and 25 μL of the labelled Ramos cells. […] Each concentration of compound was tested in triplicate. The compound and cells are allowed to incubate for 30 minutes at room temperature.

One may read the IC50 as the concentration needed to halve the response being measured. Take `Cc1ccccc1NC(=O)Nc1ccc(CC(=O)NC(CC(C)C)C(=O)N2CN(Cc3ccc4c(c3)OCO4)C(=O)C[C@H]2C(=O)O)cc1` (mixture of isomers) [Compound 363]: the half-inhibitory concentration (IC50) is above 10 µM.
The figure for `COc1cc(CC(=O)NC(CCSC)C(=O)NC(CC(=O)O)C(=O)NC(C(=O)N2CCCC2C(=O)O)C(C)C)ccc1NC(=O)Nc1ccccc1` (stereo not drawn) [Compound 2] ({NHPh-CO}-[X5]MDVP-OH; configuration not given here) is below 0.05 µM; for `COc1nc(CC(=O)N[C@@H](CC(C)C)C(=O)N[C@@H](CC(=O)O)C(=O)N[C@H](C(=O)N2CCC[C@H]2C(=O)O)C(C)C)ccc1NC(=O)Nc1ccccc1C` [Compound 4] ({NH(2-Me-phenyl)-CO}-[X4]LDVP-OH) it is below 0.05 µM; for `CC(C)C[C@H](NC(=O)c1cc2ccccc2cn1)C(=O)NC(CC(=O)NO)C(=O)N[C@H](C(=O)O)C(C)C` (stereo partly drawn) [Compound 6] it is above 10 µM.
Next, `CC(C)C[C@H](NC(=O)c1cc2ccccc2cn1)C(=O)NC(Cc1nnn[nH]1)C(=O)N[C@H](C(=O)O)C(C)C` (stereo partly drawn) [Compound 10]: above 10 µM.
Take `CC(C)CC(NC(=O)c1cc2ccccc2cn1)C(=O)NC(CC(=O)O)C(=O)NCC1CCCCC1` (stereo not drawn) [Compound 11]: the IC50 is above 10 µM.
Next, `CC(C)CC(NC(=O)CCc1ccc(O)cc1)C(=O)NC(CC(=O)O)C(=O)NCC1CCCCC1` (stereo not drawn) [Compound 14]: above 10 µM; `CC[C@H](C)[C@H](NC(=O)CCc1ccc(O)cc1)C(=O)N[C@H](CC(=O)O)C(=O)NCC(C)C` [Compound 16]: above 10 µM.
Next, `CCC(C)C(NC(=O)CCc1ccc(O)cc1)C(=O)NC(CC(=O)O)C(=O)NCC(C)C` (stereo not drawn) [Compound 17]: above 10 µM.
Turning to `CC(C)CC(NC(=O)C1Cc2ccccc2CN1)C(=O)NC(CC(=O)O)C(=O)O` (stereo not drawn) [Compound 23] (H-[Tic]-Leu-Asp-OH; configuration not given here), the concentration for half-maximal inhibition (IC50) is above 10 µM.
Regarding `CC(C)CC(NC(=O)CCc1ccccc1)C(=O)NC(CC(=O)O)C(=O)NCC1CCCCC1` (stereo not drawn) [Compound 24], the IC50 is above 10 µM.
For the molecule `CC(C)CC(NC(=O)CCCc1ccccc1)C(=O)NC(CC(=O)O)C(=O)NCC1CCCCC1` (stereo not drawn) [Compound 25], the IC50 is above 10 µM.
Next, `CC(C)CC(NC(=O)CCCCc1ccccc1)C(=O)NC(CC(=O)O)C(=O)NCC1CCCCC1` (stereo not drawn) [Compound 26]: above 10 µM.
With `CC(C)CC(NC(=O)C1Cc2ccccc2CN1)C(=O)NC(CC(=O)O)C(=O)NC(C(=O)N1CCCC1C(=O)O)C(C)C` (stereo not drawn) [Compound 33] (H-[Tic]LDVP-OH; configuration not given here), the 50% inhibitory concentration (IC50) is above 10 µM.
Regarding `COC(=O)C1CCCN1C(=O)C(NC(=O)C(CC(=O)O)NC(=O)C(CC(C)C)NC(=O)Cc1ccccc1)C(C)C` (stereo not drawn) [Compound 35], the IC50 fell in the range of 0.05 to 10 µM.
On to `CC(C)CC(NC(=O)CCc1ccc(O)cc1)C(=O)NC(CC(=O)O)C(=O)NC(C(=O)N1CCCC1C(=O)O)C(C)C` (stereo not drawn) [Compound 38], for which the IC50 is above 10 µM.
The figure for `COC(=O)C1CCCN1C(=O)C(NC(=O)C(CC(=O)O)NC(=O)C(CC(C)C)NC(=O)CCc1ccc(O)cc1)C(C)C` (stereo not drawn) [Compound 39] is above 10 µM.
In the case of `CCCCC(NC(=O)C(NC(=O)C(CC(=O)O)NC(=O)C(CC(C)C)NC(=O)Cc1ccccc1)C(C)C)C(=O)O` (stereo not drawn) [Compound 43] (PhAc-LDV[Nle]-OH; configuration not given here), the IC50 lay in the range of 0.05 to 10 µM.
Consider `CCCCC(NC(=O)C(NC(=O)C(CC(=O)O)NC(=O)C(CC(C)C)NC(=O)c1ccc2ccccc2n1)C(C)C)C(=O)O` (stereo not drawn) [Compound 44] (Quinaldoyl-LDV[Nle]-OH; configuration not given here), for which the IC50 lay in the range of 0.05 to 10 µM.
On to `CCCC(NC(=O)Cc1ccccc1)C(=O)N[C@@H](CC(=O)O)C(=O)N[C@H](C(=O)NC)C(C)C` (stereo partly drawn) [Compound 49] (PhAc-[ξNva]-Asp-Val-NHMe), for which the IC50 was above 10 µM.
Regarding `CCCC(NC(=O)C(CC(=O)O)NC(=O)C(CC(C)C)NC(=O)Cc1ccccc1)C(=O)NC` (stereo not drawn) [Compound 51] (PhAc-Leu-Asp-[Nva]-NHMe; configuration not given here), the half-maximal inhibitory concentration (IC50) was above 10 µM.
Next, `CCCC(NC(=O)C(CC(=O)O)NC(=O)C(CC(C)C)NC(=O)c1ccc2ccccc2n1)C(=O)NC` (stereo not drawn) [Compound 52]: above 10 µM.
The figure for `CCC(C)C(NC(=O)C(CC(=O)O)NC(=O)C(CC(C)C)NC(=O)Cc1ccccc1)C(N)=O` (stereo not drawn) [Compound 53] (PhAc-Leu-Asp-Ile-NH2; configuration not given here) is above 10 µM; for `CCC(C)C(NC(=O)C(CC(=O)O)NC(=O)C(CC(C)C)NC(=O)Cc1ccccc1)C(=O)OC` (stereo not drawn) [Compound 54] (PhAc-Leu-Asp-Ile-OMe; configuration not given here) it is above 10 µM.
`CCC(C)C(NC(=O)C(CC(=O)O)NC(=O)C(CC(C)C)NC(=O)Cc1ccccc1)C(=O)NC` (stereo not drawn) [Compound 55] (PhAc-Leu-Asp-Ile-NHMe; configuration not given here): the IC50 is above 10 µM.
In the case of `CCC(C)C(NC(=O)C(CC(=O)O)NC(=O)C(CC(C)C)NC(=O)c1ccc2ccccc2n1)C(=O)OC` (stereo not drawn) [Compound 56], the half-maximal inhibitory concentration (IC50) lay in the range of 0.05 to 10 µM.
The figure for `CCC(C)C(NC(=O)C(CC(=O)O)NC(=O)C(CC(C)C)NC(=O)c1ccc2ccccc2n1)C(=O)NC` (stereo not drawn) [Compound 57] is 0.05 to 10 µM.
As for `CCC(C)C(NC(=O)C(CC(=O)O)NC(=O)C(CC(C)C)NC(=O)C1CCc2ccccc2N1)C(=O)NC` (stereo not drawn) [Compound 58], the half-inhibitory concentration (IC50) lay within 0.05 to 10 µM.
Next, `CC(C)CC(NC(=O)C(Cc1ccc(O)cc1)NC(=O)OC(C)(C)C)C(=O)NC(CC(=O)O)C(=O)NC(C(=O)O)C(C)C` (stereo not drawn) [Compound 66] (Boc-YLDV-OH; configuration not given here): above 10 µM; `CC(C)[C@H](NC(=O)[C@H](CC(=O)O)NC(=O)C(C)(C)NC(=O)c1cc2ccccc2cn1)C(=O)O` [Compound 82]: above 10 µM; `CC(C)C(NC(=O)C(CC(=O)O)NC(=O)C(NC(=O)c1cc2ccccc2cn1)C1CCCCC1)C(=O)O` (stereo not drawn) [Compound 83]: above 10 µM.
Turning to `CC(C)C(NC(=O)C(CC(=O)O)NC(=O)C(NC(=O)C1Cc2ccccc2CN1)C1CCCCC1)C(=O)O` (stereo not drawn) [Compound 84] (H-[Tic][Chg]DV-OH; configuration not given here), the half-maximal inhibitory concentration (IC50) was above 10 µM.
The figure for `CC(C)C(NC(=O)C(CC(=O)O)NC(=O)C(CC1CCCCC1)NC(=O)c1cc2ccccc2cn1)C(=O)O` (stereo not drawn) [Compound 85] is above 10 µM.
Consider `CC(C)C(NC(=O)C(CC(=O)O)NC(=O)C(CC1CCCCC1)NC(=O)C1Cc2ccccc2CN1)C(=O)O` (stereo not drawn) [Compound 86] (H-[Tic][Cha]DV-OH; configuration not given here), for which the half-inhibitory concentration (IC50) is above 10 µM.
`CC(C)C[C@H](NC(=O)[C@H](CC(=O)O)NC(=O)[C@H](CC(C)C)NC(=O)C1Cc2ccccc2CN1)C(=O)O` (stereo partly drawn) [Compound 90] (H-[ξTic]LDL-OH): the IC50 was above 10 µM.
As to `CC(C)C[C@H](NC(=O)CCCCc1ccccc1)C(=O)N[C@@H](CC(=O)O)C(=O)N[C@H](C(=O)O)C(C)C` [Compound 98], the concentration for half-maximal inhibition (IC50) is above 10 µM.
Regarding `COC(=O)C[C@H](NC(=O)[C@H](CC(C)C)N(C)CCCc1ccccc1)C(=O)N[C@H](C(=O)OC)C(C)C` [Compound 112], the IC50 is above 10 µM.
With `CCCCCCNC(=O)C(NC(=O)C(CC(=O)O)NC(=O)C(CC(C)C)NC(=O)C1CCc2ccccc2N1)C(C)C` (stereo not drawn) [Compound 114], the IC50 was above 10 µM.
As for `CCCCCCNC(=O)C(NC(=O)C(CC(=O)O)NC(=O)C(CC(C)C)NC(=O)CCc1ccc(O)cc1)C(C)C` (stereo not drawn) [Compound 119], the half-maximal inhibitory concentration (IC50) is above 10 µM.
